According to US20190390161A1, “CULTURE MEDIUM COMPRISING OLIGOPEPTIDES” (Evonik Degussa GmbH, priority 2017, published 2019):
Each block holds one compound with its values, some of them ahead of it. Peptide text beside a SMILES is read from it.

How the values were obtained:
[1] = cited from earlier work; for Solubility Xxx: free amino acid, CRC Handbook of Chemistry and Physics; for solubility: prior art values, background
[2] = tested on: antibody producing Chinese Hamster Ovary (CHO) cells (Subclone DG44); assay: Experiment 3: cell growth (VCD) in TC-42 media, L-valine or L-isoleucine replaced by lysyl dipeptides; type: cell-based; parameters: Viable cell densities (VCD) / maximum cell densities (max VCD): unit: 10^6 cells/ml; details: for maximum cell densities (max VCD) / Viable cell densities (VCD): TC-42 media of table 6; for growth curve and maximum cell density compared with reference medium (FIG. 3): equimolar amounts
Source text: (§1) The influence of the L-lysine dipeptides on the growth of antibody producing Chinese Hamster Ovary (CHO) cells (Subclone DG44; Life Technologies Cooperation, Carslbad, USA) in comparison to media containing either the corresponding free amino acids or the corresponding L-alanine dipeptides was investigated. For this purpose, the cells were cultivated in a TC-42 media produced by Xell AG, Bielefeld, Germany in which the amino acids provided within the experiments by dipeptides were lacking. The concentrations of these amino acids were adjusted in such a way that, taking into account a complete hydrolysis of the dipeptides into the amino acids, the concentration of all amino acids were the same in all media tested within this experiment.
(§2) Starting from a preparatory culture an initial viable cell density (VCD) of 0.3·10^6 cells/ml was adjusted in shaking flasks by adding the test media. After 2-4 days a part of the cell culture was transferred into a new shaking flask and an initial viable cell density (VCD) of 0.3.10^6 cells/ml was adjusted by adding new test media. This was done two times and then the cell growth was followed by measuring the viable cell density (VCD) for up to 24 days.
Experiment 3: Comparison of the Cell Growths obtained with TC-42 media in which L-valine and L-isoleucine, respectively, are replaced by L-lysyl-L-valine and L-lysyl-L-isoleucine, respectively.
For this experiment a TC-42 media produced by Xell AG, Bielefeld, Germany in which L-lysine, L-valine and L-isoleucine were lacking was used. These amino acids and the dipeptides L-lysyl-L-valine and L-lysyl-L-isoleucine, respectively, were then added to the test media in the concentration listed in table 6.

[3] = Solubility found for Lys-Xxx dipeptides; details: as hydrochloride or as acetate (footnotes 6, 7)
[4] = tested on: antibody producing Chinese Hamster Ovary (CHO) cells (Subclone DG44); assay: Experiment 1: cell growth (VCD) in TC-42 media, cysteine/cystine or leucine replaced by dipeptides; type: cell-based; parameters: Viable cell densities (VCD) / maximum cell densities (max. VCD): unit not given here
Source text: as §1, with “experiment. […] Experiment 1: Comparison of the Cell Growths Obtained with TC-42 media in which L-cysteine/L-cystine is replaced by bis-L-alanyl-L-cystine, bis-L-prolyl-L-cystine or bis-L-lysyl-L-cystine and L-leucine is replaced by […] For this experiment a TC-42 media produced by Xell AG, Bielefeld, Germany in which […]-cystine and L-leucine were deliberately left out of the initial formulation. […] [table]” for “experiment.”

[5] = tested on: antibody producing Chinese Hamster Ovary (CHO) cells (Subclone DG44); assay: Experiment 2: cell growth (VCD) in TC-42 media, L-tyrosine replaced by dipeptides; type: cell-based; parameters: key to Viable cell densities (VCD) / maximum cell densities (max VCD): 10^6 cells/ml
Source text: as §1, §2
These amino acids and the dipeptides L-alanyl-L-tyrosine dihydrate and L-lysyl-L-tyrosine acetate, respectively, were then added to the test media in the concentration listed in table 4.

Compound: N[C@@H](CSSC[C@H](N)C(=O)O)C(=O)O [L-Cystine]
- Solubility Xxx [1]: 0.1 g/1000 g solution
- solubility [1]: 0.1 g/ltr

Compound: CC[C@H](C)[C@H](N)C(=O)O [L-Isoleucine]
- Solubility Xxx [1]: 39.6 g/1000 g solution

Compound: CC(C)C[C@H](N)C(=O)O [L-Leucine]
- Solubility Xxx [1]: 23.7 g/1000 g solution

Compound: CC(C)[C@H](N)C(=O)O [L-Valine]
- Solubility Xxx [1]: 81.3 g/1000 g solution

- Solubility Lys-Xxx found [3]: >500 ^7) g/1000 g solution
Compound: CC[C@H](C)[C@H](NC(=O)[C@@H](N)CCCCN)C(=O)O [Lys-Ile, L-Lysyl-L-isoleucine]
- maximum cell densities (max VCD) [2]: 10.67
- Viable cell densities (VCD) ([2]; Time 0.0): 0.44
- Viable cell densities (VCD) ([2]; Time 2.8): 1.78
- Viable cell densities (VCD) ([2]; Time 3.0): 0.48
- Viable cell densities (VCD) ([2]; Time 6.8): 3.36
- Viable cell densities (VCD) ([2]; Time 6.9): 0.39
- Viable cell densities (VCD) ([2]; Time 7.9): 0.60
- Viable cell densities (VCD) ([2]; Time 8.8): 1.04
- Viable cell densities (VCD) ([2]; Time 9.8): 1.73
- Viable cell densities (VCD) ([2]; Time 10.8): 2.73
- Viable cell densities (VCD) ([2]; Time 11.8): 4.62
- Viable cell densities (VCD) ([2]; Time 12.9): 5.77
- Viable cell densities (VCD) ([2]; Time 13.8): 7.19
- Viable cell densities (VCD) ([2]; Time 14.8): 9.27
- Viable cell densities (VCD) ([2]; Time 15.9): 9.45
- Viable cell densities (VCD) ([2]; Time 16.9): 9.40
- Viable cell densities (VCD) ([2]; Time 17.9): 10.56
- Viable cell densities (VCD) ([2]; Time 18.8): 10.67
- Viable cell densities (VCD) ([2]; Time 19.8): 9.18
- Viable cell densities (VCD) ([2]; Time 21.0): 8.77
- growth curve and maximum cell density compared with reference medium (FIG. 3) [2]: a slower growth and a lower maximum cell density

- Solubility Lys-Xxx found [3]: >330 ^7) g/1000 g solution
Compound: NCCCC[C@H](N)C(=O)N[C@@H](Cc1ccc(O)cc1)C(=O)O [Lys-Tyr, L-Lysyl-L-tyrosine acetate]

- Solubility Lys-Xxx found [3]: >400 ^6) g/1000 g solution
Compound: CC(C)[C@H](NC(=O)[C@@H](N)CCCCN)C(=O)O [Lys-Val, L-Lysyl-L-valine] (H-Lys-Val-OH)
- maximum cell densities (max VCD) [2]: 17.25
- Viable cell densities (VCD) ([2]; Time 0.0): 0.43
- Viable cell densities (VCD) ([2]; Time 2.8): 2.04
- Viable cell densities (VCD) ([2]; Time 3.0): 0.50
- Viable cell densities (VCD) ([2]; Time 6.8): 4.37
- Viable cell densities (VCD) ([2]; Time 6.9): 0.39
- Viable cell densities (VCD) ([2]; Time 7.9): 0.61
- Viable cell densities (VCD) ([2]; Time 8.8): 1.15
- Viable cell densities (VCD) ([2]; Time 9.8): 2.07
- Viable cell densities (VCD) ([2]; Time 10.8): 3.35
- Viable cell densities (VCD) ([2]; Time 11.8): 5.79
- Viable cell densities (VCD) ([2]; Time 12.9): 8.34
- Viable cell densities (VCD) ([2]; Time 13.8): 11.08
- Viable cell densities (VCD) ([2]; Time 14.8): 15.45
- Viable cell densities (VCD) ([2]; Time 15.9): 16.84
- Viable cell densities (VCD) ([2]; Time 16.9): 17.25
- Viable cell densities (VCD) ([2]; Time 17.9): 16.27
- Viable cell densities (VCD) ([2]; Time 18.8): 14.62
- growth curve and maximum cell density compared with reference medium (FIG. 3) [2]: almost matching those of the reference medium

Compound: Bis-L-prolyl-L-cystine [Pro2-Cyss, reference compound]
- maximum cell densities (max. VCD) ([4]; TC-42 media of table 2): 0.79
- Viable cell densities (VCD) ([4]; Time 0.0, TC-42 media of table 2): 0.31
- Viable cell densities (VCD) ([4]; Time 0.7, TC-42 media of table 2): 0.37
- Viable cell densities (VCD) ([4]; Time 2.0, TC-42 media of table 2): 0.32
- Viable cell densities (VCD) ([4]; Time 2.7, TC-42 media of table 2): 0.21
- Viable cell densities (VCD) ([4]; Time 3.6, TC-42 media of table 2): 0.18
- Viable cell densities (VCD) ([4]; Time 3.7, TC-42 media of table 2): 0.30
- Viable cell densities (VCD) ([4]; Time 4.7, TC-42 media of table 2): 0.24
- Viable cell densities (VCD) ([4]; Time 5.8, TC-42 media of table 2): 0.14
- Viable cell densities (VCD) ([4]; Time 6.7, TC-42 media of table 2): 0.08
- Viable cell densities (VCD) ([4]; Time 6.8, TC-42 media of table 2): 0.32
- Viable cell densities (VCD) ([4]; Time 7.8, TC-42 media of table 2): 0.43
- Viable cell densities (VCD) ([4]; Time 8.7, TC-42 media of table 2): 0.41
- Viable cell densities (VCD) ([4]; Time 9.7, TC-42 media of table 2): 0.34
- Viable cell densities (VCD) ([4]; Time 10.6, TC-42 media of table 2): 0.27
- Viable cell densities (VCD) ([4]; Time 11.6, TC-42 media of table 2): 0.79
- cell growth performance compared with reference medium (FIG. 1) ([4]; same molar amount of cysteine and cystine in the form of dipeptides): almost no growth

Compound: L-Alanyl-L-tyrosine × 2H2O [Ala-Tyr]
- maximum cell densities (max VCD) ([5]; TC-42 media of table 4): 12.44
- Viable cell densities (VCD) ([5]; Time [d] 0.0, TC-42 media of table 4): 0.38
- Viable cell densities (VCD) ([5]; Time [d] 0.7, TC-42 media of table 4): 0.51
- Viable cell densities (VCD) ([5]; Time [d] 1.7, TC-42 media of table 4): 1.22
- Viable cell densities (VCD) ([5]; Time [d] 2.7, first entry, TC-42 media of table 4): 2.22
- Viable cell densities (VCD) ([5]; Time [d] 2.7, second entry (after transfer into new flask), TC-42 media of table 4): 0.35
- Viable cell densities (VCD) ([5]; Time [d] 4.0, TC-42 media of table 4): 0.77
- Viable cell densities (VCD) ([5]; Time [d] 4.9, TC-42 media of table 4): 1.59
- Viable cell densities (VCD) ([5]; Time [d] 5.7, TC-42 media of table 4): 1.93
- Viable cell densities (VCD) ([5]; Time [d] 6.7, first entry, TC-42 media of table 4): 2.82
- Viable cell densities (VCD) ([5]; Time [d] 6.7, second entry (after transfer into new flask), TC-42 media of table 4): 0.31
- Viable cell densities (VCD) ([5]; Time [d] 7.7, TC-42 media of table 4): 0.48
- Viable cell densities (VCD) ([5]; Time [d] 8.7, TC-42 media of table 4): 1.17
- Viable cell densities (VCD) ([5]; Time [d] 9.7, TC-42 media of table 4): 1.92
- Viable cell densities (VCD) ([5]; Time [d] 11.0, TC-42 media of table 4): 4.11
- Viable cell densities (VCD) ([5]; Time [d] 11.8, TC-42 media of table 4): 6.12
- Viable cell densities (VCD) ([5]; Time [d] 12.7, TC-42 media of table 4): 8.29
- Viable cell densities (VCD) ([5]; Time [d] 13.7, TC-42 media of table 4): 10.49
- Viable cell densities (VCD) ([5]; Time [d] 14.7, TC-42 media of table 4): 12.44
- Viable cell densities (VCD) ([5]; Time [d] 15.7, TC-42 media of table 4): 11.34
- Viable cell densities (VCD) ([5]; Time [d] 16.7, TC-42 media of table 4): 12.42
- Viable cell densities (VCD) ([5]; Time [d] 17.9, TC-42 media of table 4): 11.06
- Viable cell densities (VCD) ([5]; Time [d] 18.9, TC-42 media of table 4): 11.31
- Viable cell densities (VCD) ([5]; Time [d] 19.7, TC-42 media of table 4): 11.20
- Viable cell densities (VCD) ([5]; Time [d] 20.7, TC-42 media of table 4): 11.13
- Viable cell densities (VCD) ([5]; Time [d] 21.7, TC-42 media of table 4): 11.24
- growth curves compared with reference medium (FIG. 2) ([5]; equimolar amounts of tyrosine): no significant difference
- maximum cell density compared with reference medium ([5]; equimolar amounts of tyrosine): slightly higher values
- Solubility Ala-Xxx ([1]; Degussa product brochure, cystine value WO 2011/133902): 15.3 g/1000 g solution
- solubility [1]: 8.7 g/ltr
